According to patent EP3473709B1, “DNA VECTOR CONTAINING A GENE ENCODING AN EQUINE BUTYRYLCHOLINESTERASE, FOR TRANSFORMATION AND INTEGRATION INTO LEISHMANIA TARENTOLAE CHROMOSOME” (priority 2017, dated 2019):

Legend:
[1] = biological target: recombinant equine BChE (butyrylcholinesterase), truncated version devoid of the tetramerization domain, GA-BChE-His, Seq.2, expressed in Leishmania tarentolae (Equus caballus, UniProt Q9N1N9); experiment: Ellman's method enzymatic activity test (hydrolysis of S-butyrylthiocholine iodide, DTNB, absorbance at 412 nm)
CCCC(=O)SCC[N+](C)(C)C = experiment: purified protein, by the assay type; settings: pH 7.4; 25.0 °C

Molecule | BChE activity in the presence of different concentrations of methylene blue [1] | Km (CCCC(=O)SCC[N+](C)(C)C)
CN(C)c1ccc2nc3ccc(=[N+](C)C)cc-3sc2c1 [methylene blue] | inhibited | –
recombinant equine BChE (butyrylcholinesterase), truncated version devoid of the tetramerization domain, GA-BChE-His, Seq.2, expressed in Leishmania tarentolae T7-TR (Equus caballus) | – | 20 µM
